Literature values, collected in US20110086102A1, “DELAYED RELEASE COMPOSITIONS” (Teva Pharmaceutical Industries Ltd., priority 2009, published 2011).
Read-outs that look alike come from different tables or passages of the source.

Question: Which results are given for `COc1c(C)c2c(c(O)c1C/C=C(\C)CCC(=O)[O-])C(=O)OC2.[Na+]` [Mycophenolate sodium, (E)-6-(4-hydroxy-6-methoxy-7-methyl-3-oxo-1,3-dihydro-isobenzofuran-5-yl)-4-methylhex-4-enoic acid sodium salt]?
Answer: Solubility (0.1N hydrochloric acid): practically insoluble; Solubility (aqueous media at physiological pH): highly soluble
